Experiments:
rat [1] = details: Carcinogenicity, other, Oral, Feed, dose end: 102 week, group: systemic
rat [2] = details: Sub-acute repeat dose toxicity; fischer; Oral; Gavage/Intubation; dose end: 14 day; group: systemic; systemic / hematology / leukocyte (wbc) count differential / leukocyte (wbc) + systemic / hematology / nucleated red blood cell (nrbc) / …
rat [3] = details: Subchronic oral toxicity in rodents, other, Feed, dose end: 10 week, group: systemic, systemic / in life observation / body weight / body weight gain
rat [4] = details: Subchronic oral toxicity in rodents, fischer, Gavage/Intubation, dose end: 13 week
rat [5] = details: Multigenerational reproductive toxicity study, wistar, Oral, Feed, dose end: 2 generation
rat [6] = details: Prenatal developmental toxicity study, sprague dawley, Oral, Gavage/Intubation, dose end: 15 GD
rat [7] = details: Combined chronic toxicity/carcinogenicity, sprague dawley, Oral, Feed, dose end: 24 month, group: systemic
dog [8] = details: Chronic toxicity, beagle, Oral, Capsule, dose end: 107 week, group: systemic
mouse = details: Carcinogenicity, cd1, Oral, Feed, dose end: 104 week, group: systemic
rat [9] = details: Subchronic oral toxicity in rodents, sprague dawley, Feed, dose end: 90 day
rat [10] = details: Subchronic oral toxicity in rodents, sprague dawley, Feed, dose end: 90 day, group: systemic
dog [11] = details: Chronic toxicity; beagle; Oral; Feed; dose end: 52 week; group: systemic; systemic / clinical chemistry / aspartate aminotransferase (ast/sgot) / aspartate aminotransferase (ast/sgot) + systemic / clinical …
rat [12] = details: Multigenerational reproductive toxicity study, sprague dawley, Oral, Feed, dose end: 2 generation
dog [13] = details: Subchronic oral toxicity in nonrodent, beagle, Feed, dose end: 90 day, group: systemic, systemic / hematology / leukocyte (wbc) count differential / leukocyte (wbc) + systemic / hematology / mean corpuscular hemoglobin …
rat [14] = details: Combined chronic toxicity/carcinogenicity, sprague dawley, Oral, Feed, dose end: 24 month, group: systemic; remark: listed apart in the source
rabbit = details: Prenatal developmental toxicity study, new zealand white, Oral, Gavage/Intubation, dose end: 19 GD
rat [15] = details: Prenatal developmental toxicity study, sprague dawley, Oral, Gavage/Intubation, dose end: 15 GD; remark: listed apart in the source
[16] = systemic / pathology microscopic / nose / inflammation
[17] = group: cholinesterase, cholinesterase / cholinesterase / cholinesterase / cholinesterase (che)
[18] = group: systemic, systemic / hematology / hematocrit (hct) / hematocrit (hct) + systemic / hematology / hemoglobin (hgb) / hemoglobin (hgb) + systemic / in …
[19] = group: systemic, systemic / hematology / polychromasia / polychromasia
[20] = group: offspring, systemic / in life observation / body weight / offspring (pup) weight gain
[21] = group: parental, systemic / in life observation / body weight / body weight gain
[22] = group: developmental, developmental / developmental malformation / bone / incomplete ossification + systemic / in life observation / body weight / fetal weight + …
[23] = group: maternal, reproductive / reproductive performance / fertility / fertility + reproductive / reproductive performance / resorptions / resorptions + …
[24] = systemic / pathology microscopic / thyroid gland / hyperplasia + systemic / pathology microscopic / thyroid gland / hypertrophy + systemic…
[25] = systemic / organ weight / liver / relative to body weight
[26] = systemic / organ weight / liver / relative to body weight + systemic / clinical chemistry / alkaline phosphatase (alp/alk) / alkaline …
[27] = systemic / organ weight / liver / absolute + systemic / organ weight / adrenal gland / absolute + systemic / organ weight / adrenal gland / …
[28] = group: cholinesterase, cholinesterase / cholinesterase / cholinesterase / plasma cholinesterase (che)
[29] = group: systemic, systemic / organ weight / thyroid gland / relative to body weight + systemic / pathology microscopic / kidney / eosinophilic focus + …
[30] = group: systemic, systemic / pathology microscopic / kidney / eosinophilic focus + systemic / pathology microscopic / kidney / hyaline droplet
[31] = systemic / clinical chemistry / globulins / globulins + systemic / clinical chemistry / glucose / glucose + systemic / in life observation…
[32] = systemic / organ weight / spleen / absolute + systemic / organ weight / spleen / relative to body weight
[33] = group: offspring, systemic / in life observation / body weight / offspring (pup) weight
[34] = systemic / in life observation / body weight / body weight
[35] = group: developmental, systemic / in life observation / body weight / fetal weight + developmental / developmental malformation / other / other
[36] = group: maternal, reproductive / reproductive performance / aborted / aborted + systemic / in life observation / food consumption / food consumption + …
[37] = group: developmental, systemic / in life observation / body weight / fetal weight + developmental / developmental malformation / bone / unossified + developmental…
[38] = group: maternal, systemic / in life observation / body weight / body weight gain + systemic / in life observation / clinical signs / salivation + systemic / …

Cc1cccc(C)c1N [2,6-Dimethylaniline]
LOAEL (rat [1]; systemic / in life observation / body weight / body weight gain): 50 mg/kg/day | NOAEL (rat [1]; systemic / in life observation / body weight / body weight gain + systemic / pathology microscopic / adrenal gland / adenoma + systemic / …): 15 mg/kg/day | LEL (rat [1]; [16]): 15 mg/kg/day | NEL (rat [1]; [16]): < 15 mg/kg/day | LEL (rat [2]): 310 mg/kg/day | LOAEL (rat [2]): 310 mg/kg/day | NEL (rat [2]): 160 mg/kg/day | NOAEL (rat [2]): 160 mg/kg/day | LEL (rat [3]): 150 mg/kg/day | LOAEL (rat [3]): 150 mg/kg/day | NEL (rat [3]): 50 mg/kg/day | NOAEL (rat [3]): 50 mg/kg/day | LEL (rat [4]; [17]): 160 mg/kg/day | LOAEL (rat [4]; [17]): > 310 mg/kg/day | NEL (rat [4]; [17]): 80 mg/kg/day | NOAEL (rat [4]; [17]): ≥ 310 mg/kg/day | LOAEL (rat [4]; [18]): 310 mg/kg/day | NOAEL (rat [4]; [18]): 160 mg/kg/day | LEL (rat [4]; [19]): 20 mg/kg/day | NEL (rat [4]; [19]): < 20 mg/kg/day

CC(C)N1C(=O)N(c2ccccc2)CSC1=NC(C)(C)C [Buprofezin]
LEL (rat [5]; [20]): 81.5 mg/kg/day | LOAEL (rat [5]; [20]): 81.5 mg/kg/day | NEL (rat [5]; [20]): 7.89 mg/kg/day | NOAEL (rat [5]; [20]): 7.89 mg/kg/day | LEL (rat [5]; [21]): 81.5 mg/kg/day | LOAEL (rat [5]; [21]): > 81.5 mg/kg/day | NEL (rat [5]; [21]): 7.89 mg/kg/day | NOAEL (rat [5]; [21]): ≥ 81.5 mg/kg/day | LEL (rat [6]; group: developmental, developmental / developmental malformation / bone / incomplete ossification + developmental / developmental malformation / bone / unossified): 200 mg/kg/day | LOAEL (rat [6]; [22]): 800 mg/kg/day | NEL (rat [6]; [22]): 50 mg/kg/day | NOAEL (rat [6]; [22]): 200 mg/kg/day | LOAEL (rat [6]; [23]): 800 mg/kg/day | NEL (rat [6]; [23]): 50 mg/kg/day | NOAEL (rat [6]; [23]): 200 mg/kg/day | LEL (rat [6]; group: maternal, systemic / in life observation / water consumption / water consumption): 200 mg/kg/day | LOAEL (rat [7]; systemic / pathology microscopic / thyroid gland / hyperplasia + systemic / pathology microscopic / thyroid gland / hypertrophy): 8.7 mg/kg/day | LEL (rat [7]; [24]): 8.7 mg/kg/day | NEL (rat [7]; [24]): 0.9 mg/kg/day | NOAEL (rat [7]; [24]): 0.9 mg/kg/day | LEL (dog [8]; [25]): 2 mg/kg/day | NEL (dog [8]; [25]): < 2 mg/kg/day | LOAEL (dog [8]; [26]): 20 mg/kg/day | NOAEL (dog [8]; [26]): 2 mg/kg/day | LOAEL (mouse; systemic / organ weight / liver / absolute): 17.4 mg/kg/day | NEL (mouse; [27]): 1.82 mg/kg/day | NOAEL (mouse; [27]): 1.82 mg/kg/day | LEL (mouse; systemic / organ weight / liver / absolute + systemic / organ weight / liver / relative to body weight): 17.4 mg/kg/day | LEL (rat [9]; [28]): 362 mg/kg/day | LOAEL (rat [9]; [28]): > 362 mg/kg/day | NEL (rat [9]; [28]): 81.8 mg/kg/day | NOAEL (rat [9]; [28]): ≥ 362 mg/kg/day | LOAEL (rat [9]; [29]): 68.6 mg/kg/day | NOAEL (rat [9]; [29]): 13 mg/kg/day | LEL (rat [9]; [30]): 3.4 mg/kg/day | NEL (rat [9]; [30]): < 3.4 mg/kg/day

COC(=O)c1ccccc1S(=O)(=O)NC(=O)N(C)c1nc(C)nc(OC)n1 [Tribenuron-methyl]
LOAEL (rat [10]; [31]): 118 mg/kg/day | NOAEL (rat [10]; [31]): 7 mg/kg/day | LEL (rat [10]; [32]): 8 mg/kg/day | NEL (rat [10]; [32]): < 8 mg/kg/day | LEL (dog [11]): 8.16 mg/kg/day | LOAEL (dog [11]): 8.16 mg/kg/day | NEL (dog [11]): 0.79 mg/kg/day | NOAEL (dog [11]): 0.79 mg/kg/day | LEL (rat [12]; [33]): 1.9 mg/kg/day | NEL (rat [12]; [33]): < 1.9 mg/kg/day | NOAEL (rat [12]; [20]): 1.9 mg/kg/day | LOAEL (rat [12]; group: offspring, systemic / in life observation / body weight / offspring (pup) weight gain + systemic / in life observation / body weight / offspring (pup) …): 19 mg/kg/day | LEL (rat [12]; [21]): 19 mg/kg/day | LOAEL (rat [12]; [21]): 21 mg/kg/day | NEL (rat [12]; [21]): 1.9 mg/kg/day | NOAEL (rat [12]; group: parental, systemic / in life observation / body weight / body weight gain + systemic / in life observation / body weight / body weight): 2.2 mg/kg/day | LEL (dog [13]): 73.3 mg/kg/day | LOAEL (dog [13]): > 73.3 mg/kg/day | NEL (dog [13]): 14.9 mg/kg/day | NOAEL (dog [13]): ≥ 73.3 mg/kg/day | LEL (rat [14]; [34]): 1.25 mg/kg/day | LOAEL (rat [14]; [34]): 12.5 mg/kg/day | NEL (rat [14]; [34]): < 1.25 mg/kg/day | NOAEL (rat [14]; systemic / in life observation / body weight / body weight + systemic / pathology microscopic / mammary gland / adenocarcinoma + systemic / …): 1.25 mg/kg/day | LOAEL (rabbit; group: developmental, systemic / in life observation / body weight / fetal weight): 80 mg/kg/day | LEL (rabbit; [35]): 80 mg/kg/day | NEL (rabbit; [35]): 20 mg/kg/day | NOAEL (rabbit; [35]): 20 mg/kg/day | LOAEL (rabbit; group: maternal, reproductive / reproductive performance / aborted / aborted + systemic / in life observation / food consumption / food consumption): 80 mg/kg/day | LEL (rabbit; [36]): 80 mg/kg/day | NEL (rabbit; [36]): 20 mg/kg/day | NOAEL (rabbit; [36]): 20 mg/kg/day | LOAEL (rat [15]; group: developmental, systemic / in life observation / body weight / fetal weight + developmental / developmental malformation / bone / unossified): 125 mg/kg/day | LEL (rat [15]; [37]): 125 mg/kg/day | NEL (rat [15]; [37]): 20 mg/kg/day | NOAEL (rat [15]; [37]): 20 mg/kg/day | LEL (rat [15]; [38]): 125 mg/kg/day | LOAEL (rat [15]; [38]): 125 mg/kg/day | NEL (rat [15]; [38]): 20 mg/kg/day | NOAEL (rat [15]; [38]): 20 mg/kg/day
